Data on two compounds can be found in patent US10695399B2, “Peptides for prevention of HIV infection” (SYRACUSE UNIVERSITY, priority 2017, dated 2020).

By Kd is commonly meant the equilibrium constant for the complex coming apart.

Each structure is given as a SMILES string. Residues, ends and D or L forms follow the SMILES beside them. *: point of attachment. Dansyl = CN(C)c1cccc2c(S(=O)(=O)*)cccc12 Bounds are passed on as bounds.

Series [1] is described as follows: Preliminary toxicity studies.
Series [2] deals with T1, SEVI (aggregated semen enhancer of virus infection) (Homo sapiens, UniProt P15309).
T1 construct: SEVI is the aggregated portion of the human protein that promotes infectivity
T1 sequence (P15309 248-286 limits assumed): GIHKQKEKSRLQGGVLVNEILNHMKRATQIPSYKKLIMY
The series can be described thus: Dansyl fluorescence binding study with SEVI. The procedure:
FIG. 1A is a graph of fluorescence spectra of a first dansylated peptide according to the present invention in a binding study with PAP and SEVI at a first concentration;
FIG. 1B is a graph of fluorescence spectra of the first dansylated peptide according to the present invention in a binding study with PAP and SEVI at a first concentration incubated for 24 hours;
FIG. 2A is a graph of fluorescence spectra of a first dansylated peptide according to the present invention in a binding study with PAP and SEVI at a second concentration; and
FIG. 2B is a graph of fluorescence spectra of a second dansylated peptide according to the present invention in a binding study with PAP and SEVI at a second concentration.
Dansyl is the fluorescent dye that is attached to peptides. A change in Dansyl fluorescence indicates change in the environment, i.e. binding. The physiological concentration of PAP and SEVI is 5 micromolar.

As to `CC[C@H](C)[C@H](NC(=O)[C@H](CCC(=O)O)NC(=O)[C@H](CCC(N)=O)NC(=O)[C@@H](NC(=O)[C@@H](NC(=O)[C@H](CCC(=O)O)NC(=O)[C@H](CCC(=O)O)NC(=O)[C@H](Cc1ccccc1)NS(=O)(=O)c1cccc2c(N(C)C)cccc12)[C@@H](C)CC)C(C)C)C(=O)N[C@@H](CCC(=O)O)C(=O)N[C@@H](CC(=O)O)C(=O)N[C@@H](Cc1ccccc1)C(=O)N[C@@H](CC(C)C)C(=O)N[C@@H](CCC(=O)O)C(=O)N[C@@H](CC(N)=O)C(=O)N[C@@H](CC(C)C)C(=O)N[C@H](C(N)=O)C(C)C` [Peptide 1, FEEIVQEIEDFLENLV] (Dansyl-FEEIVQEIEDFLENLV-NH2), in series [1], the toxicity result is given as “non-toxic”. In addition, the Kd in series [2] was less than 5 µM. For `CC[C@H](C)[C@H](NC(=O)CNS(=O)(=O)c1cccc2c(N(C)C)cccc12)C(=O)NCC(=O)N[C@@H](C)C(=O)N[C@H](C(=O)N[C@@H](CC(C)C)C(=O)N[C@@H](CCC(=O)O)C(=O)N[C@H](C(=O)N[C@@H](CC(C)C)C(=O)N[C@H](C(=O)N[C@H](C(=O)NCC(=O)N[C@@H](CC(C)C)C(=O)N1CCC[C@H]1C(=O)N[C@@H](C)C(=O)N[C@@H](CC(C)C)C(=O)N[C@H](C(=O)N[C@@H](CO)C(=O)N[C@@H](Cc1c[nH]c2ccccc12)C(=O)N[C@H](C(=O)N[C@@H](CCC(=O)O)C(=O)N[C@@H](CCC(=O)O)C(=O)N[C@@H](CCC(=O)O)C(=O)N[C@@H](CCC(=O)O)C(=O)N[C@@H](CCC(N)=O)C(=O)N[C@@H](CCC(N)=O)C(N)=O)[C@@H](C)CC)[C@@H](C)CC)[C@@H](C)O)[C@@H](C)O)C(C)C)C(C)C` [Peptide 2], the toxicity entry in series [1] was “non-toxic”.
